# Test system: NLRP3 inflammasome
# Assay: IL-1β Secretion Assay (NLRP3-dependent IL-1β secretion in PMA-differentiated THP-1 cells, nigericin activation, HTRF)
# Assay type: cell-based
# Conditions: Homo sapiens, THP-1, THP-1 cells, 100 ng/mL PMA 24 h, compound 20 h, 2.5 μM Nigericin 3 h; read-out: IC50 IL-1β Inhibition
# Method in brief: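 IL-1β release, quantified by HTRF after nigericin activation of the NLRP3 inflammasome, was the read-out. A logistic fit of percent inhibition gave IC50.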
row,Compound,IC50 [nM]
1,Oc1cc(C(F)(F)F)ccc1-c1nnc(N[C@@H]2CC[C@@H](O)C2)n2cccc12 [Compound I-449],10 to 100
2,CC1(O)CCCC(Nc2nnc(-c3ccc(C(F)(F)F)cc3O)c3cccn23)C1 (centres unmarked) [Compound I-450],10 to 100
3,COc1cc(Br)ccc1-c1nnc(N[C@@H]2CCCN(C)C2)n2nccc12 [Compound I-451],10 to 100
4,CN1CCC[C@@H](Nc2nnc(-c3ccc(Br)cc3O)c3ccnn23)C1 [Compound I-452],1 to 10
5,CCN1CCC[C@@H](Nc2nnc(-c3ccc(Br)cc3O)c3ccnn23)C1 [Compound I-453],< 1
6,Cc1cc2c(-c3c(O)cc(Cl)cc3F)nnc(N[C@@H]3CCCN(C)C3)n2n1 [Compound I-455],< 1
7,COc1cc(O)c(-c2nnc(N[C@@H]3CCCN(C)C3)n3cccc23)c(F)c1 [Compound I-456],< 1
8,COc1cc(O)c(-c2nnc(N[C@@H]3CCCN(CCO)C3)n3cccc23)c(F)c1 [Compound I-457],1 to 10
9,FC(F)Oc1cc(C(F)(F)F)ccc1-c1nnc(N[C@H]2CCOC2)n2cccc12 [Compound I-458],100 to 300
10,Oc1cc(C(F)(F)F)ccc1-c1nnc(N[C@H]2CCOC2)n2cccc12 [Compound I-459],10 to 100
11,CN1CC=C[C@@H](Nc2nnc(-c3ccc(C(F)(F)F)cc3O)c3cncn23)C1 [Compound I-460],1 to 10
12,"CN1CCC[C@@H](Nc2nnc(-c3ccc(C(F)(F)F)cc3O)c3cnnn23)C1 [Compound I-461, (R)-2-(7-((1-Methylpiperidin-3-yl)amino)-[1,2,3]triazolo[1,5-d][1,2,4]triazin-4-yl)-5-(trifluoromethyl)phenol]",1 to 10
13,Cc1cc(F)c(-c2nnc(N[C@@H]3C[C@@H](F)CN(C)C3)n3cccc23)c(OC(F)F)c1 [Compound I-462],10 to 100
14,Cc1cc(F)c(-c2nnc(N[C@@H]3CCCN(CCO)C3)n3cccc23)c(OC(F)F)c1 [Compound I-463],10 to 100
15,Cc1cc(F)c(-c2nnc(N[C@@H]3CCCOC3)n3cccc23)c(OC(F)F)c1 [Compound I-464],100 to 300
16,Cc1cc(F)c(-c2nnc(N[C@H]3C[C@@](C)(O)C3)n3cccc23)c(OC(F)F)c1 [Compound I-465],100 to 300
17,Cc1cc(O)c(-c2nnc(N[C@H]3C[C@@](C)(O)C3)n3cccc23)c(F)c1 [Compound I-466],1 to 10
18,C[C@]1(O)C[C@@H](Nc2nnc(-c3c(O)cc(C4CC4)cc3F)c3cccn23)C1 [Compound I-467],1 to 10
19,CN1C[C@H](F)C[C@@H](Nc2nnc(-c3ccc(C(F)(F)F)cc3C(F)(F)F)c3cccn23)C1 [Compound I-468],1 to 10
20,FC(F)OCCN1CCC[C@@H](Nc2nnc(-c3ccc(C(F)(F)F)cc3C(F)(F)F)c3cccn23)C1 [Compound I-469],10 to 100
21,CC(C)(O)CN1CCC[C@@H](Nc2nnc(-c3ccc(C(F)(F)F)cc3C(F)(F)F)c3cccn23)C1 [Compound I-470],10 to 100
22,COc1ccc(-c2nnc(N[C@@H]3CCCN(C)C3)n3cccc23)c(OC(F)F)c1 [Compound I-471],1 to 10
23,COc1ccc(-c2nnc(N[C@H]3C[C@](C)(O)C3)n3cccc23)c(OC(F)F)c1 [Compound I-472],10 to 100
24,C[C@H](O)CNc1nnc(-c2ccc(C(F)(F)F)cc2O)c2cccn12 [Compound I-473],10 to 100
25,Oc1cc(C(F)(F)F)ccc1-c1nnc(N[C@@H]2CCOC2)n2cccc12 [Compound I-474],10 to 100

row,Compound,IC50 [nM]
1,Cc1cc(F)c(-c2nnc(N[C@@H]3CCCN(C4CCOCC4)C3)n3cccc23)c(OC(F)F)c1 [Compound I-475],10 to 100
2,Cc1cc(F)c(-c2nnc(N[C@@H]3CCCN(CC(C)(C)O)C3)n3cccc23)c(OC(F)F)c1 [Compound I-476],100 to 300
3,Cc1cc(C)c(-c2nnc(N[C@@H]3CCCN(C)C3)n3cccc23)c(O)c1 [Compound I-477],1 to 10
4,CN1CC[C@H](F)[C@@H](Nc2nnc(-c3ccc(C(F)(F)F)cc3O)c3cccn23)C1 [Compound I-478],10 to 100
5,CCN1CCC[C@@H](Nc2nnc(-c3ccc(C(F)(F)F)cc3O)c3cccn23)C1 [Compound I-479],< 1
6,CC(C)N1CCC[C@@H](Nc2nnc(-c3ccc(C(F)(F)F)cc3O)c3cccn23)C1 [Compound I-480],1 to 10
7,CN1C[C@H](F)C[C@@H](Nc2nnc(-c3c(O)cc(Cl)cc3F)c3cccn23)C1 [Compound I-481],1 to 10
8,OCCN1CCC[C@@H](Nc2nnc(-c3c(O)cc(Cl)cc3F)c3cccn23)C1 [Compound I-482],1 to 10
9,Oc1cc(C(F)(F)F)ccc1-c1nnc(N[C@@H]2CCCN(CC(F)(F)F)C2)n2cccc12 [Compound I-483],100 to 300
10,"CN1CCC[C@@H](Nc2nnc(-c3ccc(Br)cc3O)c3cccn23)C1 [Compound I-484, (R)-5-Bromo-2-(4-((1-methylpiperidin-3-yl)amino)pyrrolo[1,2-d][1,2,4]triazin-1-yl)phenol]",1 to 10
11,"CN1CCC[C@@H](Nc2nnc(-c3ccc(Cl)cc3OCC(F)(F)F)c3cccn23)C1 [Compound I-485, (R)-1-(4-Chloro-2-(2,2,2-trifluoroethoxy)phenyl)-N-(1-methylpiperidin-3-yl)pyrrolo[1,2-d][1,2,4]triazin-4-amine]",10 to 100
12,"CN1CC[C@@H](F)[C@@H](Nc2nnc(-c3ccc(C(F)(F)F)cc3O)c3cccn23)C1 [Compound I-486, 2-(4-(((3S,4R)-4-Fluoro-1-methylpiperidin-3-yl)amino)pyrrolo[1,2-d][1,2,4]triazin-1-yl)-5-(trifluoromethyl)phenol]",10 to 100
13,CN1CCC[C@@H](Nc2nnc(-c3c(F)cc(C(F)(F)F)cc3OC(F)F)c3cccn23)C1 [Compound I-487],1 to 10
14,Cc1cc(F)c(-c2nnc(N[C@@H]3CCCN(C4CCOC4)C3)n3cccc23)c(OC(F)F)c1 (some centres unmarked) [Compound I-488],10 to 100
15,Cc1cc(O)c(-c2nnc(N[C@@H]3CCCN(C4CCOC4)C3)n3cccc23)c(F)c1 (some centres unmarked) [Compound I-489],1 to 10
16,"Oc1cc(Br)ccc1-c1nnc(N[C@@H]2CCCNC2)n2cccc12 [Compound I-490, (R)-5-Bromo-2-(4-(piperidin-3-ylamino)pyrrolo[1,2-d][1,2,4]triazin-1-yl) phenol]",1 to 10
17,OCCN1CCC[C@@H](Nc2nnc(-c3ccc(C(F)(F)F)cc3C(F)(F)F)c3cccn23)C1 [Compound I-491],1 to 10
18,C[C@@H](O)CNc1nnc(-c2ccc(C(F)(F)F)cc2C(F)(F)F)c2cccn12 [Compound I-492],1 to 10
19,CC(C)N1CCC[C@@H](Nc2nnc(-c3ccc(C(F)(F)F)cc3OC(F)F)c3cccn23)C1 [Compound I-493],1 to 10
20,FC(F)Oc1cc(C(F)(F)F)ccc1-c1nnc(N[C@@H]2CCCN(CC(F)(F)F)C2)n2cccc12 [Compound I-494],100 to 300
21,CCN1CCC[C@@H](Nc2nnc(-c3c(O)cc(C4CC4)cc3F)c3cccn23)C1 [Compound I-495],< 1
22,C[C@@H](O)CNc1nnc(-c2c(O)cc(C3CC3)cc2F)c2cccn12 [Compound I-496],10 to 100
23,CCN1CCC[C@@H](Nc2nnc(-c3c(O)cc(C)cc3F)c3cccn23)C1 [Compound I-498],< 1
24,Cc1cc(O)c(-c2nnc(NC[C@@H](C)O)n3cccc23)c(F)c1 [Compound I-499],10 to 100
25,C[C@H](O)CNc1nnc(-c2c(O)cc(C3CC3)cc2F)c2cccn12 [Compound I-500],10 to 100

# From patent US20240262806A1, “INHIBITORS OF NLRP3” (PTC THERAPEUTICS, INC., priority 2021, published 2024)
